How the values were obtained:
[1] = target: B-Raf (Homo sapiens, UniProt P15056); assay: Raf kinase assay (Kinase HotSpot, Reaction Biology Corp.); assay type: biochemical
[2] = target: B-Raf (V600E) (Homo sapiens, UniProt P15056, V600E); assay: as above; assay type: biochemical
[3] = target: C-Raf (Homo sapiens, UniProt P04049); assay: as above; assay type: biochemical
[4] = target: T1, A-Raf (Homo sapiens, UniProt P10398); assay: as above; assay type: biochemical
T1 sequence (P10398 1-606): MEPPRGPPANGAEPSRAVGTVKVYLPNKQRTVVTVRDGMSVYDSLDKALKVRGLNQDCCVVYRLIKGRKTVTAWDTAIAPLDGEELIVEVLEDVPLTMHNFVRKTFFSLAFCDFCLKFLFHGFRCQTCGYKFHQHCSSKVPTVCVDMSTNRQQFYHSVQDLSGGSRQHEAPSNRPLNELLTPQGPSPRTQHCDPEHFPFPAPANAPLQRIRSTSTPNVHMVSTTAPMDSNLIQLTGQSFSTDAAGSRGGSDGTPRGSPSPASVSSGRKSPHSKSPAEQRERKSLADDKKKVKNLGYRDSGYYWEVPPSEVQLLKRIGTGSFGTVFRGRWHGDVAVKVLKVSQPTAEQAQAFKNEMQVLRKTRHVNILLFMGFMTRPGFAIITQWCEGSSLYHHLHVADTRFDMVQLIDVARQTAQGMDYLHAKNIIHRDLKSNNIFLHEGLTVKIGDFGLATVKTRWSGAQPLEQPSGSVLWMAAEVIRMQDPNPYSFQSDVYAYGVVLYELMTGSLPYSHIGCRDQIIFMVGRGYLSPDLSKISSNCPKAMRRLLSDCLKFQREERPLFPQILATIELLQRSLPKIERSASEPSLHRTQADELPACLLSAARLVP

[5] = tested on: Huh7 cells xenografted onto CAM; assay: Huh7-xenografted CAM tumour model; assay type: in vivo, chick; details: 10 µM final concentration on CAM; Huh7 xenograft
Method: Cancer cell xenograft onto chick chorioallantoic membrane (CAM), an in vivo tumour model, was used to evaluate anti-tumour efficacy of compounds. Fertilised chicken eggs purchased from Byeolbichon Farm (Gyeongbuk, South Korea) were incubated at 37 °C with 55% relative humidity. On day 9 of egg incubation (embryonic day 9, E9), a small hole was made in the shell over the air sac after the selection of bifurcated vessels. Another hole was made on the broadside using a needle by applying negative pressure from the wider part, creating false air sac. Using a grinding wheel (Dremel, Racine, WI), a small window (1 cm^2) was created in the eggshell above the false air sac. For generation of xenograft CAM tumour model, Huh7 cells (1.5 × 10^6 cells/CAM) were inoculated on the CAM with or without test drugs (10 µM final concentration). On day 13 of egg incubation (E13), tumour tissues attached to CAM were resected from the embryo and harvested. Photographs of tumour as well as blood vessel branches were taken using optical microscope (Olympus Corporation, Tokyo, Japan). Tumour tissues were weighted and the number of vessel branch points within the tumour region was counted.

[6] = tested on: Hep3B cells; assay: Sphere formation assay; assay type: cell-based; details: Homo sapiens, 48 h drug treatment, 13 days culture, read-out: % Inhibition of sphere forming Hep3B
Method: Sphere forming ability of Hep3B and Huh7 cells were examined after incubation with drugs for 48 h. Briefly, 3 × 10^3 cells which were pre-treated with or without drugs in prEGM media (Lonza, Basel, Switzerland) were seeded on an ultra-low adhering 24 well plate (Corning Incorporated Costar, Corning, NY). Twice a week, 500 µL of used medium was replaced with fresh prEGM media. At 13 days after plating, images of spheres were captured using Celloger Mini (Curiosis Inc., Seoul, South Korea). The number of spheroids over 50 µm in diameter was counted by using Image J software (National Institute of Health, Bethesda, MD).

[7] = Cytotoxicity assay (MTT), normal cells; assay type: cell-based, human; details: human, mean ± SEM
Method: Hepatocellular carcinoma cell lines (HepG2, Huh7), human pancreatic ductal epithelial cell line (H6c7), and normal human colon cell line (CCD841) were obtained from the American Type Culture Collection (ATCC) (Manassas, VA, USA). Cells were cultured in DMEM/High Glucose media (Hep3B, Huh7, CCD841) or MEM/EBSS media (HepG2) containing 10% FBS, 100 IU/ml of penicillin and 100 µg/ml of streptomycin. H6c7 cells were cultured in keratinocyte serum free media supplemented with epidermal growth factor and bovine pituitary extract. Cells were maintained in 5% CO2 humidified atmosphere at 37 °C.
Cells were seeded in a 96-well plate and allowed to adhere for 24 h. Cells in low serum (1%)-containing medium were treated with drugs for 48 h. In case of H6c7 cells, cells in keratinocyte serum free media were treated with drugs for 48 h. Then, cell viability was measured using MTT assay. Optical density was measured at 540 nm using a Spectrostar Nano microplate reader (BMG LABTECH).

[8] = target: T2, VEGFR-2 tyrosine kinase (Homo sapiens, UniProt P35968); assay: VEGFR-2 (KDR) kinase assay (ADP-glow); assay type: biochemical; details: fixed concentration 1 µM; read-out: inhibitory activity against VEGFR-2 tyrosine kinase
T2 construct: purchased Promega
T2 sequence (P35968 20-1356): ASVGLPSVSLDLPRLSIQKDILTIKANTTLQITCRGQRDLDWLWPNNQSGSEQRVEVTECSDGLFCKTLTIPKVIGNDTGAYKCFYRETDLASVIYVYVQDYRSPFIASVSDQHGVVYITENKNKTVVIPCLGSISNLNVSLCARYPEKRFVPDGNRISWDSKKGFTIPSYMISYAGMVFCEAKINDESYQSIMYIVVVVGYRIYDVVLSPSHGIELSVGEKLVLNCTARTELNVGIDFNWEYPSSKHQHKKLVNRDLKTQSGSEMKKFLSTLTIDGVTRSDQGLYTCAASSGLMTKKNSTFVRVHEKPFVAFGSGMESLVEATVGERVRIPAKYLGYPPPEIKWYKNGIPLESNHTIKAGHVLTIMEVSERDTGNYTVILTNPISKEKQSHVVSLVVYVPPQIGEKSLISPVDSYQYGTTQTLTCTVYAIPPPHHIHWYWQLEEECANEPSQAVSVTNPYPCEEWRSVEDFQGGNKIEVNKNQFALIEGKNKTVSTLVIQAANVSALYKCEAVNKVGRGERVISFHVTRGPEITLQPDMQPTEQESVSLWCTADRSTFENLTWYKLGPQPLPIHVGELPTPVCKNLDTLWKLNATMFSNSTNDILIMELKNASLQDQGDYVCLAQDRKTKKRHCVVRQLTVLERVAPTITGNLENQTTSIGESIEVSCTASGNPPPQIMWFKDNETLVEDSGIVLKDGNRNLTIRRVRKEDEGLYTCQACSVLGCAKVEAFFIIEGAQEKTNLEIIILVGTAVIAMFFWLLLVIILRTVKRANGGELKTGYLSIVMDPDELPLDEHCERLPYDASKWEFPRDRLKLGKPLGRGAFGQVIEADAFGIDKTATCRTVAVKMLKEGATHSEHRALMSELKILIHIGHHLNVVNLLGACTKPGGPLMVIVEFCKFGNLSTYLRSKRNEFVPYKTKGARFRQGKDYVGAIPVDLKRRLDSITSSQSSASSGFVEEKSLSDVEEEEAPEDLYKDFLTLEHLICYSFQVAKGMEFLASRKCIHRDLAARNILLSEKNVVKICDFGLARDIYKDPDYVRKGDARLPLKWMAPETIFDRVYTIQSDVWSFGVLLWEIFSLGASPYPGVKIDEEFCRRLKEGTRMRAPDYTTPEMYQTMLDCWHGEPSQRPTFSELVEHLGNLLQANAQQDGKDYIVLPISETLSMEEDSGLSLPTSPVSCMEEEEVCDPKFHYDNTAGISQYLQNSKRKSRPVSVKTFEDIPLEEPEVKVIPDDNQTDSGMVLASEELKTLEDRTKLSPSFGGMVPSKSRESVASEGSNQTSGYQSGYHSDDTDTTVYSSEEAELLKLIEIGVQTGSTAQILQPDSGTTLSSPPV
Method: The VEGFR-2 (KDR) kinase assay was performed with a KDR (Promega, WI, USA) kinase enzyme system using the ADP-glow kinase assay kit (Promega) in accordance with the manufacturer's instructions. […] The reaction was carried out at 25 °C for 1 h in a total volume of 25 µl. Subsequently, 25 µl of ADP-Glow reagent was added to the mixture, and then incubated for 40 min at 25 °C. After the addition of 50 µl of ADP detection reagents for 30 min at 25 °C, luminescence was measured using a Fluostar Omega microplate reader (BMG LABTECH GmbH, Ortenberg, Germany).

[9] = fixed concentration 1 μM, mean of two independent experiments
[10] = fixed concentration 1 μM, mean of two independent experiments, 1 µM

Sequence of C-Raf (P04049 whole entry): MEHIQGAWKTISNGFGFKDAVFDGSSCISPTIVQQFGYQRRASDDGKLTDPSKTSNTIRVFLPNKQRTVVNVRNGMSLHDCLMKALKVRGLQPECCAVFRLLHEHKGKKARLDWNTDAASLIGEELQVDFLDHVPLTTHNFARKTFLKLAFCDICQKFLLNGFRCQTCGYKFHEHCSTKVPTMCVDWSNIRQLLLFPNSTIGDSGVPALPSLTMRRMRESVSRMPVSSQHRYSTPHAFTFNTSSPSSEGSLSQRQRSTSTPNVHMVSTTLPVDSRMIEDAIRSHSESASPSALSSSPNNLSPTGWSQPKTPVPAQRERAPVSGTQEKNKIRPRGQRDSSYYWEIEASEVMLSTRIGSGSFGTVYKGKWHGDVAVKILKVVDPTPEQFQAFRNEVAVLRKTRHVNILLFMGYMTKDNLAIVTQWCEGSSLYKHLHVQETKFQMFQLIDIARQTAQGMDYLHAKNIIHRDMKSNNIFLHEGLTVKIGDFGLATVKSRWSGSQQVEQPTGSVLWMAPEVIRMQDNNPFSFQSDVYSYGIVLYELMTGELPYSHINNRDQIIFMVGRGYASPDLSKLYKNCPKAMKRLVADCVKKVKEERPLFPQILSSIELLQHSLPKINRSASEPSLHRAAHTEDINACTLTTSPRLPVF
Sequence of B-Raf (P15056 whole entry): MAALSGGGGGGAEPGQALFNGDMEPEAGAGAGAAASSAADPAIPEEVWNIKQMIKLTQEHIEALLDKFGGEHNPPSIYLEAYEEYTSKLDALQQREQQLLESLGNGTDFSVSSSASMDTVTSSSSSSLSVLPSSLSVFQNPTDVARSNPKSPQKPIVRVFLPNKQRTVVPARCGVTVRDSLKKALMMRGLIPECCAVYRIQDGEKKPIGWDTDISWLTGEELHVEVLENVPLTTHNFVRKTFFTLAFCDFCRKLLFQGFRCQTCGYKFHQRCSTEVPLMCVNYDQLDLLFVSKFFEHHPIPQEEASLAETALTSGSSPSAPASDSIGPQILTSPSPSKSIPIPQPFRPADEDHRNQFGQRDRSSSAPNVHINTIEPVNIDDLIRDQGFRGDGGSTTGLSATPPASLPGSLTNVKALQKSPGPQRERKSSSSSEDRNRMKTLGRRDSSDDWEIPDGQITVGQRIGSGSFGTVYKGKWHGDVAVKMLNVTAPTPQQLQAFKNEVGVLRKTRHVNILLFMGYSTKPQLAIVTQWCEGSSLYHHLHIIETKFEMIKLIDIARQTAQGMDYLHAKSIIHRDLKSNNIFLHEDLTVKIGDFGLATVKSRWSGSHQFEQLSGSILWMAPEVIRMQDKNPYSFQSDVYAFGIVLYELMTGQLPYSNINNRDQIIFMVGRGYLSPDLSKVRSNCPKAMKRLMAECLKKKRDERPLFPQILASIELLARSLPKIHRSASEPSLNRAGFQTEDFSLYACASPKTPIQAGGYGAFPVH
Sequence of B-Raf (V600E) (P15056 whole entry V600E): as the sequence (P15056 whole entry) above, with V600E counted along it

For `CNC(=O)c1cc(Oc2c(C)nc(NC(=O)Nc3ccc(Cl)c(C(F)(F)F)c3)c(C)c2C)ccn1` [Compound 4, 4-((6–(3-(4-Chloro-3-(trifluoromethyl)phenyl)ureido)-2,4,5-trimethylpyridin-3-yl)oxy)-N-methylpicolinamide], the inhibition at 1 µM [1, 9] was 11.6%, the “Inhibition (%) B-Raf” value [1, 10] was 12% and the IC50 ([1]; mean ± SD of two independent experiments, read-out: In vitro Raf kinase inhibition IC50 B-Raf) was 5860 nM. For the same compound, the inhibition at 1 µM ([2]; fixed concentration 1 μM, mean of two independent experiments, B-Raf (V599E)) was 56.1%, the IC50 ([2]; mean ± SD of two independent experiments, read-out: In vitro Raf kinase inhibition IC50 B-Raf(V600E)) was 650 ± 2.3 nM and the “Inhibition (%) C-Raf” value [3, 10] was 84%. For the same compound, the inhibition at 1 µM ([3]; fixed concentration 1 μM, mean of two independent experiments, read-out: Inhibition (%) C-Raf) was 84.3%, the IC50 ([3]; mean ± SD of two independent experiments, read-out: In vitro Raf kinase inhibition IC50 C-Raf) was 80 ± 8.1 nM and the inhibition at 1 µM [4, 9] was 56%. For the same compound, the IC50 ([4]; mean ± SD of two independent experiments, read-out: In vitro Raf kinase inhibition IC50 A-Raf) was 312 ± 25.9 nM, the “inhibitory effect on tumour weight” value [5] was “weaker than that of sorafenib” and the inhibition at 1 µM ([6]; 1 μM) was 30.8%. For the same compound, the inhibition at 10 µM ([6]; 10 μM) was 50.6%, the melting point was 265 °C and the CC50 at 48 h ([7]; CCD841 cells (normal colon epithelial cell line)) was over 10000 nM. For the same compound, the CC50 at 48 h ([7]; H6c7 cells (normal pancreatic ductal epithelial cell line)) was over 10000 nM and the inhibition at 1 µM [8] was about 32%.

From publication PMC8344761 (Journal of Enzyme Inhibition and Medicinal Chemistry, 2021)
